# Values quoted from earlier work as cited in US20120128784A1, “COMPOSITION CONTAINING BEE VENOM AS AN ACTIVE INGREDIENT FOR PREVENTING AND TREATING ACNE” (Dong Sung Pharm. Co., Ltd., priority 2009, published 2012).
# Tested on: edema
# Conditions: injected into arthritis patients
compound,measurement,value
CC[C@H](C)[C@H](NC(=O)CN)C(=O)NCC(=O)N[C@@H](C)C(=O)N[C@H](C(=O)N[C@@H](CC(C)C)C(=O)N[C@@H](CCCCN)C(=O)N[C@H](C(=O)N[C@@H](CC(C)C)C(=O)N[C@H](C(=O)N[C@H](C(=O)NCC(=O)N[C@@H](CC(C)C)C(=O)N1CCC[C@H]1C(=O)N[C@@H](C)C(=O)N[C@@H](CC(C)C)C(=O)N[C@H](C(=O)N[C@@H](CO)C(=O)N[C@@H](Cc1c[nH]c2ccccc12)C(=O)N[C@H](C(=O)N[C@@H](CCCCN)C(=O)N[C@@H](CCCNC(=N)N)C(=O)N[C@@H](CCCCN)C(=O)N[C@@H](CCCNC(=N)N)C(=O)N[C@@H](CCC(N)=O)C(=O)N[C@@H](CCC(N)=O)C(N)=O)[C@@H](C)CC)[C@@H](C)CC)[C@@H](C)O)[C@@H](C)O)C(C)C)C(C)C [melittin],inhibition of edema,edema was significantly inhibited
